# In patent US20260365611A1, “CRYSTALLINE SALTS OF 2-PHENYL-2-AMINOCYCLOHEXAN-1-ONE DERIVATIVES” (priority 2023, published 2026):
# Assay: Polymorph screening (slurry, anti-solvent addition, thermal cycling, slow evaporation, vapor diffusion, polymer-induced crystallization)
# Type: physicochemical
# Set-up: key: CL: Clear Liquid; HCl-1: Form 1 polymorph; HCl-2: Mixture of Polymorphs of Form 1 and Form 2
# Experimental: Based on the approximate solubility of the product of Example 1 (1R HCl Form 1), screening experiments were conducted to find potential additional crystalline forms (polymorphs) using different screening techniques including, but not limited to, slow evaporation, slow cooling, anti-solvent addition, slurry at RT and 50 °C, temperature cycling, diffusion (solid and liquid), and polymer induced crystallization. The various procedures are outlined hereinbelow.
# ~40 mg of the product of Example 1 was slurried in 0.5-1.0 mL of different solvents in a 4.0 mL glass vial using a magnetic stirrer at RT. The solids in the slurry were stirred for 7 days.
# ~40 mg of the product of Example 1 was slurried in 0.5-1.0 mL of different solvents in a 4.0 mL glass vial using a magnetic stirrer at 50 °C. […]. The solids in the slurry were stirred for 3 days.
# ~40 mg of the product of Example 1 was dissolved in a solvent to create a saturated solution and an anti-solvent was added up to 10 volume ratios. The solids, if any, were collected.
# ~40 mg of the product of Example 1 was dissolved in a solvent, heated, and cooled following temperature cycles of 45 °C/1h→35 °C/4h→25 °C/4h→15 °C/4h→5 °C/4 h for 7 days. The obtained solids (if any) were collected after 7 days.
# ~40 mg of the product of Example 1 was dissolved in a solvent in a vial to create a saturated solution. The vial opening was covered with parafilm or aluminum foil (2-holes). The vials were kept at RT under the hood. The obtained solids (if any) were collected after 7 days.
# ~40 mg of the product of Example 1 was dissolved in a solvent to create a saturated solution in a 4.0 mL glass vial. The vial was placed in a 20 mL glass vial containing an anti-solvent. The obtained solids were collected after 7-10 days.
# ~40 mg of the product of Example 1 was kept in a 4.0 mL glass vial; this vial was placed in a 20 mL glass vial containing a solvent. The solids were collected after 7-10 days.
# ~40 mg of the product of Example 1 and 2.0 mg of the listed polymer were added to a solvent and kept stirring at RT. The solids in slurry or precipitated solids from solution were collected after 7 days.
structure (smiles),measurement,setting,value
"CN[C@@]1(c2ccc(F)cc2)CCCCC1=O.Cl [1R HCl, (R)-2-(4-fluorophenyl)-2-(methylamino)cyclohexan-1-one hydrochloride]",Crystal Form,"anti-solvent addition, DCM / 1,4-dioxane",CL
same,Crystal Form,"anti-solvent addition, DCM / Acetone",HCl-1
same,Crystal Form,"anti-solvent addition, DCM / CPME",HCl-1
same,Crystal Form,"anti-solvent addition, DCM / EtOAc",HCl-1
same,Crystal Form,"anti-solvent addition, DCM / Hexane",HCl-1
same,Crystal Form,"anti-solvent addition, IPA / 1,4-dioxane",CL
same,Crystal Form,"anti-solvent addition, IPA / Acetone",CL
same,Crystal Form,"anti-solvent addition, IPA / Heptane",HCl-1
same,Crystal Form,"anti-solvent addition, IPA / IPAc",HCl-2
same,Crystal Form,"anti-solvent addition, IPA / MTBE",HCl-2
same,Crystal Form,"anti-solvent addition, MeOH / Acetone",CL
same,Crystal Form,"anti-solvent addition, MeOH / EtOAc",HCl-1
same,Crystal Form,"anti-solvent addition, MeOH / MTBE",HCl-1
same,Crystal Form,"anti-solvent addition, MeOH / THF",HCl-1
same,Crystal Form,"anti-solvent addition, MeOH / Toluene",HCl-2
same,Crystal Form,"anti-solvent addition, Water / 1,4-dioxane",CL
same,Crystal Form,"anti-solvent addition, Water / ACN",CL
same,Crystal Form,"anti-solvent addition, Water / THF",CL
same,Crystal Form,"liquid vapor diffusion RT, DMSO / Acetone",CL
same,Crystal Form,"liquid vapor diffusion RT, DMSO / EtOAc",CL
same,Crystal Form,"liquid vapor diffusion RT, DMSO / Toluene",CL
same,Crystal Form,"liquid vapor diffusion RT, MeOH / 2-MeTHF",CL
same,Crystal Form,"liquid vapor diffusion RT, MeOH / IPAc",CL
same,Crystal Form,"liquid vapor diffusion RT, MeOH / MTBE",CL
same,Crystal Form,"liquid vapor diffusion RT, NMP / 1,4-dioxane",CL
same,Crystal Form,"liquid vapor diffusion RT, NMP / Acetone",CL
same,Crystal Form,"liquid vapor diffusion RT, NMP / MTBE",HCl-1
same,Crystal Form,"polymer induced RT, ACN/H2O (9:1), PEO (Poloxamer 407)",gel
same,Crystal Form,"polymer induced RT, Acetone/DCM (9:1), PVP",HCl-2
same,Crystal Form,"polymer induced RT, Acetone/H2O (9:1), PVA",HCl-2
same,Crystal Form,"polymer induced RT, EtOH/Heptane (3/7), HPMC",HCl-1
same,Crystal Form,"polymer induced RT, MTBE/IPA (9:1), PVA",HCl-1
same,Crystal Form,"polymer induced RT, MeOH/H2O (9:1), PVP",gel
same,Crystal Form,"slow evaporation RT, 7 days, ACN",HCl-1
same,Crystal Form,"slow evaporation RT, 7 days, Acetone",HCl-1
same,Crystal Form,"slow evaporation RT, 7 days, DCM",HCl-2
same,Crystal Form,"slow evaporation RT, 7 days, DMF",CL
same,Crystal Form,"slow evaporation RT, 7 days, DMSO",CL
same,Crystal Form,"slow evaporation RT, 7 days, MeOH",gel
same,Crystal Form,"slow evaporation RT, 7 days, NMP",CL
same,Crystal Form,"slow evaporation RT, 7 days, Water",HCl-1
same,Crystal Form,"slow evaporation RT, 7 days, nPA",HCl-1
same,Crystal Form,"slurry 50 °C, 3 days, 1,4-dioxane",HCl-1
same,Crystal Form,"slurry 50 °C, 3 days, 2-MeTHF",HCl-1
same,Crystal Form,"slurry 50 °C, 3 days, ACN",HCl-1
same,Crystal Form,"slurry 50 °C, 3 days, Acetone/Toluene (1:1)",HCl-1
same,Crystal Form,"slurry 50 °C, 3 days, EtOAc",HCl-1
same,Crystal Form,"slurry 50 °C, 3 days, EtOH",HCl-1
same,Crystal Form,"slurry 50 °C, 3 days, IPA",HCl-1
same,Crystal Form,"slurry 50 °C, 3 days, IPAc",HCl-1
same,Crystal Form,"slurry 50 °C, 3 days, MEK",HCl-1
same,Crystal Form,"slurry 50 °C, 3 days, MIBK",HCl-1
same,Crystal Form,"slurry 50 °C, 3 days, MTBE",HCl-1
same,Crystal Form,"slurry 50 °C, 3 days, MeOH",HCl-1
same,Crystal Form,"slurry 50 °C, 3 days, THF/H2O (9:1)",gel
same,Crystal Form,"slurry 50 °C, 3 days, THF/n-Heptane (1:1)",HCl-1
same,Crystal Form,"slurry 50 °C, 3 days, Toluene",HCl-1
same,Crystal Form,"slurry 50 °C, 3 days, Water",HCl-1
same,Crystal Form,"slurry RT, 7 days, 1,4-dioxane",HCl-2
same,Crystal Form,"slurry RT, 7 days, ACN",HCl-2
same,Crystal Form,"slurry RT, 7 days, Acetone/H2O (aw = 0.2)",HCl-2
same,Crystal Form,"slurry RT, 7 days, Acetone/H2O (aw = 0.4)",HCl-2
same,Crystal Form,"slurry RT, 7 days, Acetone/H2O (aw = 0.6)",gel
same,Crystal Form,"slurry RT, 7 days, Acetone/H2O (aw = 0.8)",gel
same,Crystal Form,"slurry RT, 7 days, Acetone/Toluene (1:1)",HCl-1
same,Crystal Form,"slurry RT, 7 days, Anisole",HCl-1
same,Crystal Form,"slurry RT, 7 days, CPME",HCl-1
same,Crystal Form,"slurry RT, 7 days, EtOAc",HCl-1
same,Crystal Form,"slurry RT, 7 days, H2O",CL
same,Crystal Form,"slurry RT, 7 days, IPA",HCl-1
same,Crystal Form,"slurry RT, 7 days, IPAc",HCl-1
same,Crystal Form,"slurry RT, 7 days, MEK",HCl-1
same,Crystal Form,"slurry RT, 7 days, MIBK",HCl-1
same,Crystal Form,"slurry RT, 7 days, MTBE",HCl-1
same,Crystal Form,"slurry RT, 7 days, MeOH",HCl-1
same,Crystal Form,"slurry RT, 7 days, PEG",amorphous
same,Crystal Form,"slurry RT, 7 days, THF",HCl-2
same,Crystal Form,"slurry RT, 7 days, THF/n-Heptane (1:1)",HCl-1
same,Crystal Form,"slurry RT, 7 days, Toluene",HCl-1
same,Crystal Form,"solid vapor diffusion RT, 1,4-dioxane",HCl-1
same,Crystal Form,"solid vapor diffusion RT, 2-MeTHF",HCl-1
same,Crystal Form,"solid vapor diffusion RT, ACN",HCl-1
same,Crystal Form,"solid vapor diffusion RT, Acetone",HCl-1
same,Crystal Form,"solid vapor diffusion RT, DCM",CL
same,Crystal Form,"solid vapor diffusion RT, EtOAc",HCl-1
same,Crystal Form,"solid vapor diffusion RT, EtOH",CL
same,Crystal Form,"solid vapor diffusion RT, Hexane",HCl-1
same,Crystal Form,"solid vapor diffusion RT, MEK",HCl-1
same,Crystal Form,"solid vapor diffusion RT, MTBE",HCl-1
same,Crystal Form,"solid vapor diffusion RT, MeOH",CL
same,Crystal Form,"solid vapor diffusion RT, Toluene",HCl-1
same,Crystal Form,"thermal cycling, 7 days, ACN",HCl-1
same,Crystal Form,"thermal cycling, 7 days, DMSO",HCl-1
same,Crystal Form,"thermal cycling, 7 days, EtOH/acetone (3:7)",gel
same,Crystal Form,"thermal cycling, 7 days, EtOH/n-Heptane (3:7)",HCl-1
same,Crystal Form,"thermal cycling, 7 days, IPA",HCl-2
same,Crystal Form,"thermal cycling, 7 days, IPA/Toluene (3:7)",HCl-2
same,Crystal Form,"thermal cycling, 7 days, MeOH/IPAc (1:9)",HCl-1
